For one series, the target named is T1, protein polymer Aβ1-42 (Homo sapiens, UniProt P05067).
T1 construct: A receptor Aβ1-42 protein is prepared by an established method
Kind of series: Competitive binding experiment (Ki assay) against [125I]IMPY. To be noted: read-out: Ki (inhibition constant). As for the experimental part:
Competitive binding experiment (Ki assay): Put a protein polymer Aβ1-42 of a certain concentration and a radioactive ligand [^125I] […] (5) A glass fiber filter is soaked in a PBS solution containing 0.1% (volume fraction) of polyethyleneimine for 0.5 h. (6) Add 100 μL of a solution of a compound to be tested and of different concentrations, 100 μL of the [^125I] […] Seal the tub with parafilm and swirl it. (7) Shake the tube in a water bath constantly at 37° C. and maintain the incubation for 2 h. (8) Collect the reaction solution with a multi-phase cell collector. Rinse the collected solution with the PBS for three times, 3 mL for each rinse. (9) Count with a γ counter. (10) Process the data.

Series [1] can be described thus: In-vivo biodistribution experiment on normal mice. On the set-up: species or system mice (ICR, male). The note with it: for Bones radioactivity: tail vein injection. The method, then: The in-vivo pharmacokinetic properties of mice have been studied with the in-vivo biodistribution experiment, especially the absorption by the primitive brain and the removal from the brain.
Inject 5-10 μCi of a labeled compound (100 μL of a physiological saline solution containing 5% of ethanol) into normal mice (ICR, male, 20-22 g) (n=5) by tail vein injection. The mice are decapitated respectively 2 minutes, 10 minutes, 30 minutes and 60 minutes after the injection. Dissect the mice and take out the relevant organs. Measure the moisture content and the radioactivity amount. The measurement values represent the percentage of the radioactivity amount in an organ (% ID/organ) and the percentage of the radioactivity amount in the organ of one gram (% ID/g).

26 molecules from patent publication US9809585B2, “Fluorinated 2-arylbenzo heterocyclic compound with high affinity to Aβ 946; plaques and containing chiral side chain substituent, and preparation method and usage thereof” (BEIJING ZHIBO BIO-MEDICAL TECHNOLOGY CO.,LTD, priority 2014, dated 2017) can be followed below.

T1 sequence (P05067 672-713 limits assumed): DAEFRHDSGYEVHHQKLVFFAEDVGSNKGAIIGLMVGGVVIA

With `CNc1ccc(-c2nc3ccc(OC[C@@H](O)CF)cc3s2)cc1` [Compound 14r], at protein polymer Aβ1-42, the Ki is 27.2 ± 2.9 nM.

Consider `CNc1ccc(-c2nc3ccc(OC[C@H](O)CF)cc3s2)cc1` [Compound 14s], for which, at protein polymer Aβ1-42, the Ki is 26 ± 6.5 nM.

Regarding `CN(C)c1ccc(-c2nc3ccc(OC[C@@H](O)CF)cc3s2)cc1` [Compound 15r], on protein polymer Aβ1-42, the Ki was 3.2 ± 1.1 nM.

For `CN(C)c1ccc(-c2nc3ccc(OC[C@H](O)CF)cc3s2)cc1` [Compound 15s], the Ki at protein polymer Aβ1-42 came out at 3.7 ± 1.1 nM.

In the case of `CNc1ccc(-c2nc3ccc(OC[C@@H](O)CF)cc3s2)cn1` [Compound 16r], on protein polymer Aβ1-42, the Ki turned out to be 9.9 ± 2.8 nM.

For `CNc1ccc(-c2nc3ccc(OC[C@H](O)CF)cc3s2)cn1` [Compound 16s], the Ki on protein polymer Aβ1-42 amounted to 45.4 ± 11.8 nM.

On to `CN(C)c1ccc(-c2nc3ccc(OC[C@@H](O)CF)cc3s2)cn1` [Compound 17r], for which the Ki at protein polymer Aβ1-42 was found to be 11.1 ± 5.4 nM.

Turning to `CN(C)c1ccc(-c2nc3ccc(OC[C@H](O)CF)cc3s2)cn1` [Compound 17s], on protein polymer Aβ1-42, the Ki turned out to be 27.2 ± 7.1 nM.

In the case of `CNc1ccc(-c2nc3ccc(OC[C@@H](O)CF)cc3o2)cc1` [Compound 18r], the Ki at protein polymer Aβ1-42 turned out to be 129 ± 40.2 nM.

For the molecule `CNc1ccc(-c2nc3ccc(OC[C@H](O)CF)cc3o2)cc1` [Compound 18s], on protein polymer Aβ1-42, the Ki worked out at 103 ± 18.6 nM.

Turning to `CN(C)c1ccc(-c2nc3ccc(OC[C@@H](O)CF)cc3o2)cc1` [Compound 19r], the Ki at protein polymer Aβ1-42 was 10.8 ± 2.6 nM.

`CN(C)c1ccc(-c2nc3ccc(OC[C@H](O)CF)cc3o2)cc1` [Compound 19s]: the Ki at protein polymer Aβ1-42 was 11 ± 1.5 nM.

As to `CNc1ccc(-c2nc3cc(OC[C@@H](O)CF)ccc3o2)cc1` [Compound 28r], the Ki at protein polymer Aβ1-42 amounted to 85.3 ± 5.2 nM.

Regarding `CNc1ccc(-c2nc3cc(OC[C@H](O)CF)ccc3o2)cc1` [Compound 28s], the Ki at protein polymer Aβ1-42 amounted to 67.3 ± 5.5 nM.

Consider `CN(C)c1ccc(-c2nc3cc(OC[C@@H](O)CF)ccc3o2)cc1` [Compound 29r], for which the inhibition constant Ki at protein polymer Aβ1-42 was 7.6 ± 2.8 nM.

`CN(C)c1ccc(-c2nc3cc(OC[C@H](O)CF)ccc3o2)cc1` [Compound 29s]: the Ki at protein polymer Aβ1-42 came out at 15.5 ± 3.2 nM.

For the molecule `CNc1ccc(-c2nc3cc(OC[C@@H](O)CF)ccc3o2)cn1` [Compound 30r], the Ki on protein polymer Aβ1-42 was determined as 187 ± 39 nM.

`CNc1ccc(-c2nc3cc(OC[C@H](O)CF)ccc3o2)cn1` [Compound 30s]: the Ki on protein polymer Aβ1-42 came out at 196 ± 49.1 nM.

As for `CN(C)c1ccc(-c2nc3cc(OC[C@@H](O)CF)ccc3o2)cn1` [Compound 31r], the Ki at protein polymer Aβ1-42 was found to be 27.2 ± 6.3 nM.

As to `CN(C)c1ccc(-c2nc3cc(OC[C@H](O)CF)ccc3o2)cn1` [Compound 31s], at protein polymer Aβ1-42, the Ki came to 57.4 ± 7.6 nM.

Turning to `CN(C)c1ccc(-c2nc3ccc(OC[C@@H](O)C[18F])cc3s2)cc1` [Compound [^18F]15r], the Bones radioactivity is reported as 2.43 ± 0.53 % ID/g in series [1] (2 min.), 2.31 ± 0.26 % ID/g in series [1] (10 min), 1.42 ± 0.27 % ID/g in series [1] (30 min) and 1.12 ± 0.59 % ID/g in series [1] (1 h).

Take `CN(C)c1ccc(-c2nc3ccc(OC[C@H](O)C[18F])cc3s2)cc1` [Compound [^18F]15s]: the Bones radioactivity stood at 2.31 ± 0.71 % ID/g in series [1] (2 min.), 1.82 ± 0.39 % ID/g in series [1] (10 min), 1.45 ± 0.48 % ID/g in series [1] (30 min) and 1.08 ± 0.38 % ID/g in series [1] (1 h).

With `CNc1ccc(-c2nc3cc(OC[C@@H](O)C[18F])ccc3o2)cc1` [Compound [^18F]28r], the Bones radioactivity came out at 1.41 ± 0.29 % ID/g in series [1] (2 min.), 1.79 ± 0.21 % ID/g in series [1] (10 min), 1.19 ± 0.15 % ID/g in series [1] (30 min) and 3.05 ± 0.86 % ID/g in series [1] (1 h).

With `CNc1ccc(-c2nc3cc(OC[C@H](O)C[18F])ccc3o2)cc1` [Compound [^18F]28s], the Bones radioactivity in series [1] (2 min.) is given as 1.63 ± 0.44 % ID/g; in series [1] (10 min), 0.77 ± 0.11 % ID/g; in series [1] (30 min), 0.52 ± 0.16 % ID/g; in series [1] (1 h), 0.74 ± 0.13 % ID/g.

For `CN(C)c1ccc(-c2nc3cc(OC[C@@H](O)C[18F])ccc3o2)cc1` [Compound [^18F]29r], the Bones radioactivity is on record as 2.12 ± 0.60 % ID/g in series [1] (2 min.), 1.24 ± 0.40 % ID/g in series [1] (10 min), 1.36 ± 0.41 % ID/g in series [1] (30 min) and 1.93 ± 0.77 % ID/g in series [1] (1 h).

On to `CN(C)c1ccc(-c2nc3cc(OC[C@H](O)C[18F])ccc3o2)cc1` [Compound [^18F]29s], for which the “removal from the brain” value in series [1] is given as “quickly removed from the brain of normal mice”. Besides, in series [1] (brain), the “ratio of the absorption in 2 minutes to that in 60 minutes (brain)” value turned out to be 27.8. The Bones radioactivity was 2.06 ± 0.45 % ID/g in series [1] (2 min.), 0.99 ± 0.35 % ID/g in series [1] (10 min), 0.85 ± 0.30 % ID/g in series [1] (30 min) and 1.13 ± 0.28 % ID/g in series [1] (1 h).
